The numbers were not newly measured in patent US20170259275A1, “PROCESS FOR SEPARATING AMINO AND/OR ORGANIC ACID-CONTAINING PARTICLES FROM A MIXTURE” (Sanovations B.V., priority 2014, published 2017), which cites them from elsewhere.

For series [1] the following is noted: solid, crystalline form.
For series [2] the following is noted: 25° C., water.

For `C[C@H](N)C(=O)O` [Alanine], the “Crystal Density” value in series [1] is 1.371 g/mL. The “Aqueous Solubility” value in series [2] was 16.65 g/100 g.

For `N=C(N)NCCC[C@H](N)C(=O)O` [Arginine], the “Crystal Density” value in series [1] is 1.325 g/mL.

As for `NC(=O)C[C@H](N)C(=O)O` [Asparagine], the “Aqueous Solubility” value in series [2] was 3.53 g/100 g. In the case of `N[C@@H](CC(=O)O)C(=O)O` [Aspartic Acid], the “Crystal Density” value in series [1] was 1.636 g/mL. As for `N[C@@H](CS)C(=O)O` [Cysteine], the “Crystal Density” value in series [1] is 1.495 g/mL. Also, the “Aqueous Solubility” value in series [2] is given as 28 g/100 g.

In the case of `N[C@@H](CCC(=O)O)C(=O)O` [Glutamic Acid], the “Crystal Density” value in series [1] is 1.566 g/mL. Consider `NC(=O)CC[C@H](N)C(=O)O` [Glutamine], for which the “Aqueous Solubility” value in series [2] is recorded as 2.5 g/100 g. For the compound `NCC(=O)O` [Glycine], the “Crystal Density” value in series [1] is 1.598 g/mL. For the compound `N[C@@H](Cc1c[nH]cn1)C(=O)O` [Histidine], the “Crystal Density” value in series [1] was 1.412 g/mL. In addition, the “Aqueous Solubility” value in series [2] is on record as 4.19 g/100 g.

As for `CC[C@H](C)[C@H](N)C(=O)O` [Isoleucine], the “Crystal Density” value in series [1] is 1.201 g/mL. Besides, the “Aqueous Solubility” value in series [2] was 4.117 g/100 g. For `CC(C)C[C@H](N)C(=O)O` [Leucine], the “Aqueous Solubility” value in series [2] is recorded as 2.426 g/100 g.

Take `NCCCC[C@H](N)C(=O)O` [Lysine]: in series [1], the “Crystal Density” value was 1.237 g/mL. Moreover, the “Aqueous Solubility” value in series [2] is 30 g/100 g. Take `CSCC[C@H](N)C(=O)O` [Methionine]: in series [1], the “Crystal Density” value is 1.311 g/mL. Further, the “Aqueous Solubility” value in series [2] is reported as 3.381 g/100 g. Regarding `N[C@@H](Cc1ccccc1)C(=O)O` [Phenylalanine], the “Crystal Density” value in series [1] was 1.315 g/mL. Also, the “Aqueous Solubility” value in series [2] was 2.965 g/100 g.

Regarding `O=C(O)[C@@H]1CCCN1` [Proline], the “Crystal Density” value in series [1] is 1.376 g/mL. As for `N[C@@H](CO)C(=O)O` [Serine], the “Crystal Density” value in series [1] is 1.582 g/mL. Take `C[C@@H](O)[C@H](N)C(=O)O` [Threonine]: the “Crystal Density” value in series [1] is 1.499 g/mL. Turning to `N[C@@H](Cc1c[nH]c2ccccc12)C(=O)O` [Tryptophan], the “Crystal Density” value in series [1] is 1.303 g/mL. The “Aqueous Solubility” value in series [2] was 1.136 g/100 g. For `N[C@@H](Cc1ccc(O)cc1)C(=O)O` [Tyrosine], the “Crystal Density” value in series [1] is 1.403 g/mL. Turning to `CC(C)[C@H](N)C(=O)O` [Valine], the “Crystal Density” value in series [1] was 1.267 g/mL. Moreover, the “Aqueous Solubility” value in series [2] is 8.85 g/100 g.
